The record followed here is patent US20230210939A1, “CYCLIC PEPTIDE COMPOUNDS AND METHODS OF USE” (priority 2020, published 2023).

Positions of bridges follow the written chain, without caps; N, C: chain ends. Non-standard residues stand in square brackets, D forms with d. Residues, ends and D or L forms follow the SMILES beside them. *: point of attachment. Picolinoyl = O=C(c1ccccn1)*; Aib = CC(C)(N)C(=O)O

Assay [1] concerns TNF-α content in conditioned media of LPS-treated BV2 microglial cells. In words: In vitro TNF-α inhibitory activity in LPS-treated BV2 microglial cells. The class given is cell-based. The following applies: compound 45 min before LPS, 24 h incubation, TNF-α in supernatant, read-out: IC50 for reducing LPS-induced TNF-α content by half. Here is the method: To measure the efficacy of the biological activity of Compound 1, an in vitro assay was employed to measure TNF-α content in conditioned media of cells treated with lipopolysaccharide (LPS) and different concentrations of Compound 1. 1 mg of Compound 1 peptide compound was added to 3.333 mL of physiological saline to make a 189 μM peptide solution which is sterilized by filtration through a 0.22 μm membrane filter. For treatment of cells, threefold serial dilutions were made, yielding concentrations of 189, 63, 21, 7, 2.3, and 0.76 μM peptide solution.
BV2 cells were recovered and passaged more than 3 times. 1.2×10^6 BV2 microglial cells in good growth state and in the logarithmic growth phase were diluted to […] cells/mL with DMEM medium containing 10% FBS, and 400 μL of cell suspension was inoculated into each well of a 48-well cell culture plate. […]

For assay [2], the system named is TNF-α content in the blood of LPS-treated ICR mice. The experiment in a line: In vivo TNF-α inhibitory activity in LPS-treated mice. Particulars: ICR male mice, IV compound 30 min before IV LPS 5 μg/kg, blood collected 1.5 hours after LPS. Here is the method:
To measure the efficacy of the biological activity of Compound 1, an in vivo assay was employed to measure TNF-α content in the blood of whole mice treated with lipopolysaccharide (LPS) and different concentrations of Compound 1. 56 ICR male mice, 12-14 g, were acclimated to the animal facility for 7 days and were then randomized into 8 groups with 7 mice/group to receive doses of 0, 0.001, 0.003, 0.01, 0.03, 0.1, 0.3, and 1.0 mg/kg of compound. Each dose group received intravenous (IV) injection of different concentrations of Compound 1 peptide solution at a dosing volume of 10 mL/kg. 30 min later, IV LPS at a dose of 5 μg/kg and at a volume of 10 ml/kg was administered. 1.5 hours after administration of LPS, whole blood was collected from the orbit of ICR mice, centrifuged at 4000 rpm for 10 min, and the supernatant was collected and used for TNF-α content detection from each of the different Compound 1 doses. (TNF-α detection kit, Unitech biological item number: 70-EK282/3-96).

For orientation: IC50 means the concentration needed to halve the response being measured. Consider `CC(C)CC1NC(=O)C(CC(C)C)NC(=O)C(CCCNC(=N)N)NC(=O)C(CCCCN)NC(=O)C(C)(C)NC(=O)C(CC(C)C)NC(=O)C(CCCCN)NC(=O)C(CCCNC(=N)N)NC(=O)C(CC(C)C)NC(=O)C(NC(=O)C(CO)NC(=O)C(C)NC(=O)c2ccccn2)CSSCC(C(N)=O)NC1=O` (stereo not drawn) [Compound 1, picolinyl-Ala-Ser-cyclo[Cys-LRKL-Aib-KRLL-Cys]-NH2] (Picolinoyl-ASCLRKL[Aib]KRLLC-NH2; disulfide 3-13; configuration not given here), for which the IC50 in assay [1] was roughly 1020 nM. Also, the “ED50 (Effective Dose at which a 50% reduction in blood TNF-α content was found)” value in assay [2] is 0.045 mg/kg.
